Test results published in US12678488B2, “Batch management method for improving farrowing rate or number of piglets born alive in swine” (priority 2024, dated 2026).

System: batch farrowing sows
Test: Previous experiment of feeding batch farrowing sows with different doses at different times
Assay type: in vivo, pigs
Conditions: application dosage and oral administration time of clinical medicine and bovine superovulation
Procedure: In the disclosure, the administration dosage of 1-[bis(4-cyanophenyl)alkyl]-1,2,4-triazole is generally 10-50 μg/kg·BW administered in a single dose, preferably 12-30 μg/kg·BW administered in a single dose, further preferably 12-25 μg/kg·BW administered in a single dose, e.g., 13, 14, 15, 16, 17, 18, 19, 20, 21, 22, or 23 μg/kg·BW. Alternatively, it can be administered in two doses. As long as the total administration dosage of the two doses is within a range of 10-50 μg/kg·BW, the dosage of each administration is not particularly limited, for example, each administration dosage is generally within a range of 1-40 μg/kg·BW. In the case of two doses, the time interval between the two instances of administration is 8-30 hours, preferably 9-28 hours, more preferably 10-26 hours, further preferably 12-25 hours, 14-24 hours, etc. If the administration dosage is too high, it tends to affect the estrus and ovulation in animals and even cause ovarian cysts. The administration dosage of the disclosure is important.

Question: With `N#Cc1ccc(C(c2ccc(C#N)cc2)n2cncn2)cc1` [1-[bis(4-cyanophenyl)methyl]-1,2,4-triazole] as the molecule, how does the “problems caused in sows” value read?
Answer: Its value is “recessive estrus, ovarian cyst, anovulation, and pregnancy failure”.
